Biological target: c-fms (Homo sapiens, UniProt P07333)
Assay: c-fms autophosphorylation, fluorescence polarization competition immunoassay
Assay type: biochemical
Conditions: 10 nM c-fms, 1 mM ATP, 5 mM MgCl2, 45 min room temperature; averages of three independent measurements; read-out: c-fms Autophosphorylation IC50
Protocol: Autophosphorylation, Fluorescence Polarization Competition Immunoassay
The assay buffer used was 100 mM 4-(2-hydroxyethyl)piperazine 1-ethanesulfonic acid (HEPES), pH 7.5, 1 mM 1,4-dithio-DL-threitol (DTT), 0.01% (v/v) Tween-20. Compounds were diluted in assay buffer containing 4% dimethylsulfoxide (DMSO) just prior to the assay. […] The kinase reaction was initiated by adding 2 μL of 5 mM ATP (Sigma) in assay buffer. The final concentrations in the assay were 10 nM c-fms, 1 mM ATP, 5 mM MgCl2, 2% DMSO. Control reactions were ran in each plate: in positive and negative control wells, assay buffer (made 4% in DMSO) was substituted for the compound; in addition, positive control wells received 1.2 μL of 50 mM ethylenediaminetetraaceticacid (EDTA).
The plates were incubated at room temperature for 45 min. At the end of the incubation, the reaction was quenched with 1.2 μL of 50 mM EDTA (EDTA was not added to the positive control wells at this point; see above). Following a 5-min incubation, each well received 10 μL of a 1:1:3 mixture of anti-phosphotyrosine antibody, 10×, PTK green tracer, 10× (vortexed), FP dilution buffer, respectively (all from PanVera, cat. # P2837). The plate was covered, incubated for 30 min at room temperature and the fluorescence polarization was read on the Analyst.
The IC50 values shown in Table 1 are averages of three independent measurements.

Chain of c-fms (P07333 20-972): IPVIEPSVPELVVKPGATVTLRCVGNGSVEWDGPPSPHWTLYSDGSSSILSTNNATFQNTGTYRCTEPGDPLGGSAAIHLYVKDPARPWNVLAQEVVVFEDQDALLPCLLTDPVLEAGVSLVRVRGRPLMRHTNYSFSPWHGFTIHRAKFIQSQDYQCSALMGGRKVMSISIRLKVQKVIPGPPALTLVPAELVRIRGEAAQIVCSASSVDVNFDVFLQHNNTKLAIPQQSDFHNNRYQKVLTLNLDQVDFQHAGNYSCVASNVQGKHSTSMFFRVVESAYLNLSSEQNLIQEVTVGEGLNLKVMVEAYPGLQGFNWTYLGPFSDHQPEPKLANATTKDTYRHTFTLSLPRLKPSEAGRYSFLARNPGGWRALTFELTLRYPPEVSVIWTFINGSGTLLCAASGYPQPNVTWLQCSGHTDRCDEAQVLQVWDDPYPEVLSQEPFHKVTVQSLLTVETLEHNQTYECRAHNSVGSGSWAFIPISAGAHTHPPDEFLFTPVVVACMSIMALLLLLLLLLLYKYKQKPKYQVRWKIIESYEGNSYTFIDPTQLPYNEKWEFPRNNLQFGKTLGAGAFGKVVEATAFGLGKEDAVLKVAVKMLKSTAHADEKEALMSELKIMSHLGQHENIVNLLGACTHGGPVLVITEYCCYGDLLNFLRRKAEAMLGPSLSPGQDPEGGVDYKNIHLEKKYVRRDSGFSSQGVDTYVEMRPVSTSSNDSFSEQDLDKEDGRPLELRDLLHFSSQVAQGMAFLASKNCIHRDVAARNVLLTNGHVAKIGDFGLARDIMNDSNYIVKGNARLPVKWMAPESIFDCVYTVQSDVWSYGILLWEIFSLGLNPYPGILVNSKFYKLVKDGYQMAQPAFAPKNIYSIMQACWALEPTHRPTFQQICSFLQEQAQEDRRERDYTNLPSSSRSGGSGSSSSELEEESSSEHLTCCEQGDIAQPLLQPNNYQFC

Row | IC50 | Structure (SMILES)
1 | 0.44 µM | CCOC(=O)c1cn(-c2ccc3c(c2)CCC3)c2nc(Nc3ccc(OCC(O)CN(C)C)cc3)ncc2c1=O (stereo not shown) [Cpd 2, 2-[4-(3-Dimethylamino-2-hydroxy-propoxy)-phenylamino]-8-indan-5-yl-5-oxo-5,8-dihydro-pyrido[2,3-d]pyrimidine-6-carboxylic acid ethyl ester]
2 | 0.12 µM | NC(=O)c1cn(C2CCCCC2)c2nc(Nc3ccc(CCS(=O)(=O)N4CCOCC4)cc3)ncc2c1=O [Cpd 67, 8-Cyclohexyl-2-{4-[2-(morpholine-4-sulfonyl)-ethyl]-phenylamino}-5-oxo-5,8-dihydro-pyrido[2,3-d]pyrimidine-6-carboxylic acid amide]
3 | 0.3 µM | CCNC(=O)c1cn(C2CC3CCC2C3)c2nc(Nc3ccc(N4CCN(C)CC4)cc3)ncc2c1=O (stereo not shown) [Cpd 83, 8-Bicyclo[2.2.1]hept-2-yl-2-[4-(4-methyl-piperazin-1-yl)-phenylamino]-5-oxo-5,8-dihydro-pyrido[2,3-d]pyrimidine-6-carboxylic acid ethylamide]
4 | 0.01 µM | NC(=O)c1cn(-c2ccc3c(c2)CCC3)c2nc(Nc3ccc(CCN4CCOCC4)cc3)ncc2c1=O [Cpd 27, 8-Indan-5-yl-2-[4-(2-morpholin-4-yl-ethyl)-phenylamino]-5-oxo-5,8-dihydro-pyrido[2,3-d]pyrimidine-6-carboxylic acid amide]
5 | 0.081 µM | CN1CCN(c2ccc(Nc3ncc4c(=O)c(C(N)=O)cn(C5CC6CCC5C6)c4n3)cc2)CC1 (stereo not shown) [Cpd 82, 8-Bicyclo[2.2.1]hept-2-yl-2-[4-(4-methyl-piperazin-1-yl)-phenylamino]-5-oxo-5,8-dihydro-pyrido[2,3-d]pyrimidine-6-carboxylic acid amide]
6 | 0.009 µM | CNC(=O)c1cn(-c2ccc3c(c2)CCC3)c2nc(Nc3cccc(N4CCN(C)CC4)c3)ncc2c1=O [Cpd 38, 8-indan-5-yl-2-[3-(4-methyl-piperazin-1-yl)-phenylamino]-5-oxo-5,8-dihydro-pyrido[2,3-d]pyrimidine-6-carboxylic acid methyl amide]
7 | 0.28 µM | CCOC(=O)c1cn(-c2ccc3c(c2)CCC3)c2nc(Nc3ccc(N4CCN(C)CC4)cc3)ncc2c1=O [Cpd 1, 8-Indan-5-yl-2-[4-(4-methyl-piperazin-1-yl)-phenylamino]-5-oxo-5,8-dihydro-pyrido[2,3-d]pyrimidine-6-carboxylic acid ethyl ester]
8 | 0.13 µM | CN(C)CC(=O)N1CCC(c2ccc(Nc3ncc4c(=O)c(C(N)=O)cn(C5CCCCC5)c4n3)cc2)CC1 [Cpd 68, 8-Cyclohexyl-2-{4-[1-(2-dimethylamino-acetyl)-piperidin-4-yl]-phenylamino}-5-oxo-5,8-dihydro-pyrido[2,3-d]pyrimidine-6-carboxylic acid amide]
9 | 0.14 µM | CCNC(=O)c1cn(-c2ccc3c(c2)CCC3)c2nc(Nc3cccc(CN(C)C)c3)ncc2c1=O [Cpd 78, 2-(3-Dimethylaminomethyl-phenylamino)-8-indan-5-yl-5-oxo-5,8-dihydro-pyrido[2,3-d]pyrimidine-6-carboxylic acid ethylamide]
10 | 0.011 µM | CNC(=O)c1cn(-c2ccc3c(c2)CCC3)c2nc(Nc3ccc(N4CCNCC4)cc3)ncc2c1=O [Cpd 41, 8-indan-5-yl-5-oxo-2-(4-piperazin-1-yl-phenylamino)-5,8-dihydro-pyrido[2,3-d]pyrimidine-6-carboxylic acid methyl amide]
11 | > 10 µM | CCOC(=O)c1cn(-c2ccc3c(c2)CCC3)c2nc(Nc3ccc(N(C)C)cc3)ncc2c1=O [Cpd 4, 2-(4-Dimethylamino-phenylamino)-8-indan-5-yl-5-oxo-5,8-dihydro-pyrido[2,3-d]pyrimidine-6-carboxylic acid ethyl ester]
12 | 0.068 µM | CCNC(=O)c1cn(-c2ccc3c(c2)CCC3)c2nc(Nc3ccc(N4CCN(C)CC4)cc3)ncc2c1=O [Cpd 9, 8-indan-5-yl-2-[4-(4-methyl-piperazin-1-yl)-phenylamino]-5-oxo-5,8-dihydro-pyrido[2,3-d]pyrimidine-6-carboxylic acid ethylamide]
13 | 1.7 µM | CCOC(=O)c1cn(C2CCCCC2)c2nc(Nc3ccc(N4CCN(C)CC4)cc3)ncc2c1=O [Cpd 17, 8-Cyclohexyl-2-[4-(4-methyl-piperazin-1-yl)-phenylamino]-5-oxo-5,8-dihydro-pyrido[2,3-d]pyrimidine-6-carboxylic acid ethyl ester]
14 | 0.018 µM | CN(C)Cc1cccc(Nc2ncc3c(=O)c(C(N)=O)cn(-c4ccc5c(c4)CCC5)c3n2)c1 [Cpd 76, 2-(3-Dimethylaminomethyl-phenylamino)-8-indan-5-yl-5-oxo-5,8-dihydro-pyrido[2,3-d]pyrimidine-6-carboxylic acid amide]
15 | 0.15 µM | CNC(=O)c1cn(-c2ccc3c(c2)CCC3)c2nc(Nc3cccc(CN(C)C)c3)ncc2c1=O [Cpd 77, 2-(3-Dimethylaminomethyl-phenylamino)-8-indan-5-yl-5-oxo-5,8-dihydro-pyrido[2,3-d]pyrimidine-6-carboxylic acid methylamide]
16 | 0.08 µM | CNC(=O)c1cn(-c2ccc3c(c2)CCC3)c2nc(Nc3ccc(CCS(=O)(=O)N4CCOCC4)cc3)ncc2c1=O [Cpd 35, 8-Indan-5-yl-2-{4-[2-(morpholine-4-sulfonyl)-ethyl]-phenylamino}-5-oxo-5,8-dihydro-pyrido[2,3-d]pyrimidine-6-carboxylic acid methyl amide]
17 | 0.016 µM | CCNC(=O)c1cn(-c2ccc3c(c2)CCC3)c2nc(Nc3ccc(N4CCNCC4)cc3)ncc2c1=O [Cpd 42, 8-indan-5-yl-5-oxo-2-(4-piperazin-1-yl-phenylamino)-5,8-dihydro-pyrido[2,3-d]pyrimidine-6-carboxylic acid ethyl amide]
18 | 0.026 µM | NC(=O)c1cn(C2CCCCC2)c2nc(Nc3ccc(CCN4CCOCC4)cc3)ncc2c1=O [Cpd 57, 8-Cyclohexyl-2-[4-(2-morpholin-4-yl-ethyl)-phenylamino]-5-oxo-5,8-dihydro-pyrido[2,3-d]pyrimidine-6-carboxylic acid amide]
19 | 0.008 µM | CN1CCN(c2cccc(Nc3ncc4c(=O)c(C(N)=O)cn(-c5ccc6c(c5)CCC6)c4n3)c2)CC1 [Cpd 37, 8-Indan-5-yl-2-[3-(4-methyl-piperazin-1-yl)-phenylamino]-5-oxo-5,8-dihydro-pyrido[2,3-d]pyrimidine-6-carboxylic acid amide]
20 | 2.9 µM | CCOC(=O)c1cn(-c2ccc3c(c2)CCC3)c2nc(Nc3ccc(N4CCOCC4)cc3)ncc2c1=O [Cpd 3, 8-Indan-5-yl-2-(4-morpholin-4-yl-phenylamino)-5-oxo-5,8-dihydro-pyrido[2,3-d]pyrimidine-6-carboxylic acid ethyl ester]
21 | 0.16 µM | CNC(=O)c1cn(C2CCCCC2)c2nc(Nc3ccc(N4CCN(C)CC4)cc3)ncc2c1=O [Cpd 61, 8-Cyclohexyl-2-[4-(4-methyl-piperazin-1-yl)-phenylamino]-5-oxo-5,8-dihydro-pyrido[2,3-d]pyrimidine-6-carboxylic acid methyl amide]
22 | 0.12 µM | CC(C)NS(=O)(=O)CCc1ccc(Nc2ncc3c(=O)c(C(N)=O)cn(C4CCCCC4)c3n2)cc1 [Cpd 66, 8-Cyclohexyl-2-[4-(2-isopropylsulfamoyl-ethyl)-phenylamino]-5-oxo-5,8-dihydro-pyrido[2,3-d]pyrimidine-6-carboxylic acid amide]
23 | 0.032 µM | CCNC(=O)c1cn(-c2ccc3c(c2)CCC3)c2nc(Nc3ccc(CN4CCN(C)CC4)cc3)ncc2c1=O [Cpd 84, 8-Indan-5-yl-2-[4-(4-methyl-piperazin-1-ylmethyl)-phenylamino]-5-oxo-5,8-dihydro-pyrido[2,3-d]pyrimidine-6-carboxylic acid ethylamide]
24 | 0.012 µM | NC(=O)c1cn(-c2ccc3c(c2)CCC3)c2nc(Nc3ccc(C[C@H]4COC(=O)N4)cc3)ncc2c1=O [Cpd 30, (4S)-8-Indan-5-yl-5-oxo-2-[4-(2-oxo-oxazolidin-4-ylmethyl)-phenylamino]-5,8-dihydro-pyrido[2,3-d]pyrimidine-6-carboxylic acid amide]
25 | 1.1 µM | CN(C)CC(=O)N1CCC(c2ccc(Nc3ncc4c(=O)c(C(N)=O)cn(-c5ccc6c(c5)CCC6)c4n3)cc2)CC1 [Cpd 70, 2-{4-[1-(2-Dimethylamino-acetyl)-piperidin-4-yl]-phenylamino}-8-indan-5-yl-5-oxo-5,8-dihydro-pyrido[2,3-d]pyrimidine-6-carboxylic acid amide]
26 | 0.11 µM | CCNC(=O)c1cn(C2CCCCC2)c2nc(Nc3cccc(N4CCN(C)CC4)c3)ncc2c1=O [Cpd 65, 8-Cyclohexyl-2-[3-(4-methyl-piperazin-1-yl)-phenylamino]-5-oxo-5,8-dihydro-pyrido[2,3-d]pyrimidine-6-carboxylic acid ethyl amide]
27 | 0.19 µM | CCNC(=O)c1cn(C2CCCCC2)c2nc(Nc3ccc(N4CCN(C)CC4)cc3)ncc2c1=O [Cpd 62, 8-Cyclohexyl-2-[4-(4-methyl-piperazin-1-yl)-phenylamino]-5-oxo-5,8-dihydro-pyrido[2,3-d]pyrimidine-6-carboxylic acid ethyl amide]
28 | 0.07 µM | CN(C)c1ccc(Nc2ncc3c(=O)c(C(N)=O)cn(-c4ccc5c(c4)CCC5)c3n2)cc1 [Cpd 15, 2-(4-Dimethylamino-phenylamino)-8-indan-5-yl-5-oxo-5,8-dihydro-pyrido[2,3-d]pyrimidine-6-carboxylic acid amide]
